Measured values: publication PMC7287953, “Potential Therapeutic Targeting of Coronavirus Spike Glycoprotein Priming” (Molecules, 2020)
Where “and” joins values, the source holds several entries; their conditions need not be identical. Equal entries are not always repeated. Where two headings read alike, the source gives them in different places.

Experiments:
[1] = system: SARS-CoV2 surrogate viral particles; settings: human cells; cited from earlier work
[2] = target: T1, furin (Homo sapiens, UniProt P09958); assay: Inhibition of furin activity, fluorescent substrate Pyr-RTKR-AMC; format: biochemical
T1 construct: made in house
T1 sequence (P09958 108-794): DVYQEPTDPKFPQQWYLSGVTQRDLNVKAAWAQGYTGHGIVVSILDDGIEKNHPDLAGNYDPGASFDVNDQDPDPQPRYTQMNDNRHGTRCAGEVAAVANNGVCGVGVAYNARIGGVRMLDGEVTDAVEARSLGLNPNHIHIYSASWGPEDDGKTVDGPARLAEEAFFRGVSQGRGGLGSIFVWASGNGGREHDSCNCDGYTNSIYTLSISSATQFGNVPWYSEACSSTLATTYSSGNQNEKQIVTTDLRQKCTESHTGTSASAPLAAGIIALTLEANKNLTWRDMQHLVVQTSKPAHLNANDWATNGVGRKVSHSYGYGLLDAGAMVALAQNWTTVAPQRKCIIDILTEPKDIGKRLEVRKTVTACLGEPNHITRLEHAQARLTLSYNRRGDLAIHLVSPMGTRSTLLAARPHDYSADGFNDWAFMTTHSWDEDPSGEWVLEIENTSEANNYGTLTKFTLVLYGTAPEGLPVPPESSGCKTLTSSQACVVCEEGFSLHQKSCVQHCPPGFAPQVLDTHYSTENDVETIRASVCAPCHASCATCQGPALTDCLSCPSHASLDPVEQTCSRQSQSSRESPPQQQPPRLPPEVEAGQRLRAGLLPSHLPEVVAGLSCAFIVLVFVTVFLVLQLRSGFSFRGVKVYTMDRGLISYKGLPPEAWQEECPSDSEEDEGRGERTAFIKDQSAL

[3] = system: RAW 264.7 murine monocyte macrophages; format: cell-based
[4] = target: T2, trypsin from bovine pancreas (Bos taurus, UniProt P00760); assay: Inhibition of trypsin from bovine pancreas; format: biochemical; settings: at 10 µM; trypsin as model enzyme for TMPRSS2
T2 construct: from tissue; host or cells: bovine pancreas
T2 sequence (P00760 24-246): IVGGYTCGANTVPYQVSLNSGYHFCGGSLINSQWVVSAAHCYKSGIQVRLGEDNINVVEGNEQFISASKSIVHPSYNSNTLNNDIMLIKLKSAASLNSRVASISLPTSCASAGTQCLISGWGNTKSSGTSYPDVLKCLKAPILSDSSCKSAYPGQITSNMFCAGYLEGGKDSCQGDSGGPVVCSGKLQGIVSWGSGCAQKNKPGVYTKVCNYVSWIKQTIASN

[5] = physchem; settings: 25 °C, pH 7.2, aqueous buffer
[6] = target: T3, hPC2 (Homo sapiens, UniProt P16519); assay: Specificity for furin-like PCs: hPC2 inhibition; format: biochemical; settings: Table S2
T3 sequence (P16519 110-638): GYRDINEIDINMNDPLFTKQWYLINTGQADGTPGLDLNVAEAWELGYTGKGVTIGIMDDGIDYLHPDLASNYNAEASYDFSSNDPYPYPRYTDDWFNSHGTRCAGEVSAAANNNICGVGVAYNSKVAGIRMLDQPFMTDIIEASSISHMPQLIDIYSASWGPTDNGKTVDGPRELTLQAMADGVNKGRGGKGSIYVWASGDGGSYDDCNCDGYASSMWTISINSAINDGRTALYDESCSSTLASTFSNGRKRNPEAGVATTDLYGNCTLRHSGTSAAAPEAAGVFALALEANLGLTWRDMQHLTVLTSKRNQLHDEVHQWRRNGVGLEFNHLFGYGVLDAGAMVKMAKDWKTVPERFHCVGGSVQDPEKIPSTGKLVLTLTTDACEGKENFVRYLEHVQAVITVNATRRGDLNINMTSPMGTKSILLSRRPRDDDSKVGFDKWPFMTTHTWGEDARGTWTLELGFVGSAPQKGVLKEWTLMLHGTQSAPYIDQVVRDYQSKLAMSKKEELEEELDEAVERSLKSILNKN

[7] = in vivo; settings: mouse
[8] = Plasma stability by LCMS; settings: rat plasma, after 60 min incubation
[9] = target: T4, hPC7 (Homo sapiens, UniProt Q16549); assay: Specificity for furin-like PCs: hPC7 inhibition; format: biochemical; settings: Table S2
T4 sequence (Q16549 142-785): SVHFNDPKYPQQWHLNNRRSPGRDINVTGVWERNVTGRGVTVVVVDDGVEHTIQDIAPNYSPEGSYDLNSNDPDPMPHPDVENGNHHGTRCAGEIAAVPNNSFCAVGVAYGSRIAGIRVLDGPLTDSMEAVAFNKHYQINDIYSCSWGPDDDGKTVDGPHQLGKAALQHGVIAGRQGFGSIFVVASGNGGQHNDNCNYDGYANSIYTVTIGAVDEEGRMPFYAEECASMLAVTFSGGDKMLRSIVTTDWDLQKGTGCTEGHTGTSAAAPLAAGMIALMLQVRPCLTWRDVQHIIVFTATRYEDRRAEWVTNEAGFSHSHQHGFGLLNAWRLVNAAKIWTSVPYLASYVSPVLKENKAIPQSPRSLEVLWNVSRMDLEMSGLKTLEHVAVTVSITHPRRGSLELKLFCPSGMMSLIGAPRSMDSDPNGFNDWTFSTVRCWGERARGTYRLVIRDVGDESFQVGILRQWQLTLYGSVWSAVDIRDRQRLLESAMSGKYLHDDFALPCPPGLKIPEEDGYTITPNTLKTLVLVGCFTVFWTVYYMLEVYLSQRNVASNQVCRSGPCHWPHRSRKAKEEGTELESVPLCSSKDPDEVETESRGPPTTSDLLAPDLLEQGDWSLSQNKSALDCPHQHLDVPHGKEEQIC

[10] = target: T5, hPC1/3 (Homo sapiens, UniProt P29120); assay: Inhibition of hPC1/3 activity, fluorescent substrate Pyr-RTKR-AMC; format: biochemical
T5 sequence (P29120 111-753): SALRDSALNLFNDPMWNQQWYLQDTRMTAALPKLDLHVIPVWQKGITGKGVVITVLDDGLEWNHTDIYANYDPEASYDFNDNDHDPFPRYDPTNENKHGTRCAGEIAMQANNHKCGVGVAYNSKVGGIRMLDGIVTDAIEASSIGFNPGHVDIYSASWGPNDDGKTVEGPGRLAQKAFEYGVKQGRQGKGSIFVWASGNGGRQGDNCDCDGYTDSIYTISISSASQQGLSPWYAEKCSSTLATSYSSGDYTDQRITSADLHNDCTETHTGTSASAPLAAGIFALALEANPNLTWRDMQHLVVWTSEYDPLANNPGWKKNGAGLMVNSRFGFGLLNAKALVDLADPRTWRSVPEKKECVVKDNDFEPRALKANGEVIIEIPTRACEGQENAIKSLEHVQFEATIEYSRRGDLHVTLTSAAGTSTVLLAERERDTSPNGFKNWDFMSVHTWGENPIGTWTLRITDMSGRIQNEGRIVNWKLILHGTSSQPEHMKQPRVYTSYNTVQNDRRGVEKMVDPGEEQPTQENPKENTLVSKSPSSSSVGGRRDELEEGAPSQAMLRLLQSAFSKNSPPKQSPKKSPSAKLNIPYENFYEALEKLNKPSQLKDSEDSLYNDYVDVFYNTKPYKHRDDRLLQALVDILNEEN

[11] = mouse, in vivo, 30 mg/kg
[12] = system: anthrax toxin LF/PA; set-up: species or system Balb/c mice; settings: mouse, in vivo
[13] = Toxicity study, I.P. dosing and blood chemistry

For `CN(C)C(=O)COC(=O)Cc1ccc(OC(=O)c2ccc(NC(=N)N)cc2)cc1` [camostat], the “concentrations that attenuated (only partially) entry of SARS-CoV2 surrogate viral particles” value [1] is given as 10 to 50 µM, the “inhibition of furin (in words)” value [2] is given as “poor furin inhibitor” and the “inhibition of furin (in words)” value ([2]; listed as camostat mesylate) is given as “did not appreciably inhibit furin”.
In the case of `CC(=O)N[C@@H](CCCNC(=N)N)C(=O)N[C@H](C(=O)N[C@@H](Cc1ccc(N=C(N)N)cc1)C(=O)NCc1ccc(C(=N)N)cc1)C(C)C` [compound 1], the “EC50 protection of RAW macrophages from LF/PA-induced cell death” value [3] is reported as “low micromolar range”, the inhibition of trypsin [4] is reported as “can inhibit this enzyme” and the solubility [5] is reported as greater than 1000 µM. It also gave an IC50 [6] of 1860 nM, a bioavailability ([7]; %F I.P./I.V.) of roughly 100% and a bioavailability ([7]; %F P.O./I.V.) of less than 1%. For the same compound, the AUC ([7]; ip, 3 mg/kg) was 2600 ng·h/mL, the AUC ([7]; iv, 1 mg/kg) was 870 ng·h/mL and the AUC ([7]; po, 30 mg/kg) was 26 ng·h/mL. The IC50 [2] was 9 nM, the “plasma stability, intact” value [8] was greater than 86% and the IC50 [9] was 11800 nM. The IC50 [10] was 3 nM, the “absorption after oral administration (in words)” value [11] was “insignificant adsorption” and the “MST (median survival time)” value [12] was 31.5 h and 52.5 h. For the same compound, the “TTD (time to death)” value [12] was 48 h and 96 h, the “other blood chemistry values” ([13]; 5 min after single 20 mg/kg injection) was “normal” and the “acute toxicity, blood chemistry finding” value ([13]; 5 min after single 20 mg/kg injection, compared to control group) was “gross hemolysis”. The MTD ([13]; female, Balb/c, mouse, in vivo, ip) was roughly 10 mg/kg, the mice that died ([13]; single dose 15 mg/kg I.P., 1 h after compound administration) was “all mice” and the mice that died ([13]; single dose 20 mg/kg I.P., 15 min after compound injection) was 2 out of 3.
